Results reported in US20160183577A1, “Transglucosylated Rubus suavissimus Extract and Methods of Preparation and Use” (INTERNATIONAL FLAVORS & FRAGRANCES INC., priority 2014, published 2016).

Experiment: Sensory evaluation of sweetness and mouthfeel of solutions in sucrose base solution (Example II)
Format: in vivo
Conditions: in sucrose base solution (4% in water), sucrose 1.5%, Reb-A 30 ppm, sucralose 20 ppm, rubusoside 45 ppm, Preparations at total rubusoside 45 ppm; for Mouthfeel: averaged score of 0 to 10 (0=none, 1=barely detectable, 2=weak, 4=weak-moderate, 6=moderate, 8=moderate-strong, 10=extremely strong); for Sweetness: averaged score of 0 to 10 (0=none, 10=extremely strong)
Protocol: Isosweet solutions of sucrose (1.5%), rebaudioside A (“Reb-A”) (30 ppm), sucralose (20 ppm) and rubusoside (45 ppm) were prepared in a sucrose base solution (4% in water). Additional solutions of the transglucosylated R. suavissimus extract prepared with different rubusoside transglucosylation rates including Preparation I, II and III (prepared as above in EXAMPLE I) were also prepared, wherein the total rubusoside concentrations were equalized to 45 ppm.
Sweetness and mouthfeel of the obtained solutions were evaluated using a score of 0 to 10, where 0=none, 1=barely detectable, 2=weak, 4=weak-moderate, 6=moderate, 8=moderate-strong and 10=extremely strong.

Structure (SMILES) | Mouthfeel | Sweetness
C=C1C[C@@]23CC[C@H]4[C@@](C)(CCC[C@@]4(C)C(=O)O[C@@H]4O[C@H](CO)[C@@H](O)[C@H](O)[C@H]4O)[C@@H]2CC[C@]1(O[C@@H]1O[C@H](CO)[C@@H](O)[C@H](O[C@@H]2O[C@H](CO)[C@@H](O)[C@H](O)[C@H]2O)[C@H]1O[C@@H]1O[C@H](CO)[C@@H](O)[C@H](O)[C@H]1O)C3 [Reb-A, rebaudioside A] | 3 | 5
C=C1C[C@@]23CC[C@H]4[C@@](C)(CCC[C@@]4(C)C(=O)O[C@@H]4O[C@H](CO)[C@@H](O)[C@H](O)[C@H]4O)[C@@H]2CC[C@]1(O[C@@H]1O[C@H](CO)[C@@H](O)[C@H](O)[C@H]1O)C3 [Rubusoside, rubusoside] | 4 | 5
OC[C@H]1O[C@H](O[C@]2(CCl)O[C@H](CCl)[C@@H](O)[C@@H]2O)[C@H](O)[C@@H](O)[C@H]1Cl [Sucralose, sucralose] | 3 | 5
OC[C@H]1O[C@@](CO)(O[C@H]2O[C@H](CO)[C@@H](O)[C@H](O)[C@H]2O)[C@@H](O)[C@@H]1O [Sucrose, sucrose] | 7 | 5
